Literature values in paper PMC6784077 (Viruses, 2019).

In the case of enfuvirtide, the t1/2 is listed as ~ 1.5 h.
